30 compounds from ChEMBL document CHEMBL3603760, “Potential therapeutic agents for circulatory diseases from Bauhinia glauca Benth.subsp. pernervosa. (Da Ye Guan Men)” (Bioorg Med Chem Lett, 2015) can be followed below.

pIC50: −log10 of the molar value. The source made the active and inactive calls. No cut-off for these calls is given here.

What is called inhibition is the drop in the measured response relative to a control, in per cent. As usually defined, the pIC50 is the negative decadic logarithm of the IC50, by convention in mol/L.

For the first assay, the system named is Platelet. Description: (§1) Anti-platelet activity in rat platelet rich plasma assessed as inhibition of ADP and calcium-induced platelet aggregation at 100 uM pre-incubated at 37 degC for 10 mins and measured 30 mins after ADP and calcium addition. It counts as functional.
Take `O=C(O)c1ccc(O)c(O)c1`: the inhibition entry was “inactive”.

For `O=C(O)c1cc(O)c(O)c(O)c1`, the inhibition result was “inactive”.

In the case of `COc1c(C)c(O)c2c(=O)c(O)c(-c3ccc(O)cc3)oc2c1C`, the inhibition result is “inactive”.

With `Cc1c(O)c(C)c2c(c1O)C(=O)C[C@@H](c1ccc(O)cc1)O2`, the inhibition result was “inactive”.

Turning to `COc1c(-c2ccc(O)c(O)c2)oc2cc(O)ccc2c1=O`, the inhibition entry is “inactive”.

With `COc1ccc(C(=O)O)cc1O`, the inhibition entry was “inactive”.

With `O=c1c(O)c(-c2ccc(O)cc2)oc2cc(O)cc(O)c12`, the inhibition result was “inactive”.

For `COc1cc(O[C@@H]2O[C@H](COC(=O)c3cc(O)c(O)c(O)c3)[C@@H](O)[C@H](O)[C@H]2O)cc(O)c1OC`, the inhibition result is “inactive”.

For `COc1c(-c2ccc(O)c(O)c2)oc2cc(O)cc(O)c2c1=O`, the inhibition entry is “inactive”.

As for `COc1cc(-c2oc3cc(O)cc(O)c3c(=O)c2O)ccc1O`, the inhibition result was “inactive”.

Take `C[C@H]1O[C@@H](Oc2c(-c3cc(O)c(O)c(O)c3)oc3cc(O)cc(O)c3c2=O)[C@@H](O)[C@@H](O)[C@@H]1O`: the inhibition entry is “inactive”.

For `COc1cc(C(=O)O)cc(OC)c1O`, the inhibition entry is “inactive”.

Test system in a further assay: not listed separately
The description is as §1. Format: functional.
As to `Oc1cc(O)c2c(c1)O[C@H](c1ccc(O)c(O)c1)[C@@H](O)C2` [CIANIDANOL], the inhibition at 100 µM was 35.1%.

Take `COc1cc(-c2cc(=O)c3c(O)cc(O)cc3o2)ccc1O` [CHRYSOERIOL]: the inhibition at 100 µM stood at 92.3%.

Consider `COc1c(O)cc(C=O)cc1O`, for which the inhibition at 100 µM worked out at 20.8%.

Take `O=c1cc(-c2ccc(O)c(O)c2)oc2cc(O)cc(O)c12` [LUTEOLIN]: the inhibition at 100 µM came to 26.6%.

Turning to `O=c1c(O)c(-c2ccc(O)c(O)c2)oc2cc(O)cc(O)c12` [QUERCETIN], the inhibition at 100 µM came out at 16.8%.

Consider `COc1cc(O[C@@H]2O[C@H](COC(=O)c3cc(O)c(O)c(O)c3)[C@@H](O)[C@H](O)[C@H]2O)ccc1O`, for which the inhibition at 100 µM came to 22.1%.

Regarding `O=C1C[C@@H](c2ccc(O)c(O)c2)Oc2cc(O)cc(O)c21` [ERIODICTYOL], the inhibition at 100 µM is 24.5%.

Regarding `COC(=O)c1cc(O)c(O)c(O)c1` [GALLIC ACID METHYL ESTER], the inhibition at 100 µM stood at 16.2%.

Take `O=c1c(O[C@@H]2O[C@H](CO)[C@H](O)[C@H](O)[C@H]2O)c(-c2ccc(O)c(O)c2)oc2cc(O)cc(O)c12` [HYPEROSIDE]: the inhibition at 100 µM worked out at 35.2%.

As for `O=c1c(O[C@@H]2O[C@H](CO)[C@@H](O)[C@H](O)[C@H]2O)c(-c2ccc(O)c(O)c2)oc2cc(O)cc(O)c12` [ISOQUERCETIN], the inhibition at 100 µM amounted to 36.2%.

In the case of `O=c1ccoc2cc(O)cc(O)c12`, the inhibition at 100 µM was 6.83%.

For `O=c1cc(-c2ccc(O)c(O)c2)oc2cc(O)ccc12`, the inhibition at 100 µM came out at 13.7%.

Consider `C[C@@H]1O[C@@H](Oc2cc(O)c3c(=O)cc(-c4cc(O)c(O)c(O)c4)oc3c2)[C@H](O)[C@H](O)[C@H]1O`, for which the inhibition at 100 µM came out at 41.3%.

In the case of `Cc1c(O)cc2oc(-c3ccc(O)cc3)c(O)c(=O)c2c1O`, the inhibition at 100 µM amounted to 26%.

For `C[C@@H]1O[C@@H](Oc2c(-c3ccc(O)c(O)c3)oc3cc(O)cc(O)c3c2=O)[C@H](O)[C@H](O)[C@H]1O` [QUERCITRIN], the inhibition at 100 µM was 2.13%.

As to `O=c1c(O[C@@H]2OC[C@H](O)[C@H](O)[C@H]2O)c(-c2ccc(O)c(O)c2)oc2cc(O)cc(O)c12` [GUAJAVERIN], the inhibition at 100 µM is 7.29%.

For `O=C(O)/C=C/c1ccccc1` [CINNAMIC ACID], the inhibition at 100 µM turned out to be 8.69%.

Test system in a further assay: not listed separately
Description: Anti-platelet activity in rat platelet rich plasma assessed as inhibition of ADP and calcium-induced platelet aggregation incubated at 37 degC for 10 mins and measured 30 mins after ADP and calcium addition. It counts as functional.
For the compound `COc1cc(-c2cc(=O)c3c(O)cc(O)cc3o2)ccc1O` [CHRYSOERIOL], the negative-log IC50 (pIC50) is 4.57.

The subject of the next assay is Platelet. Description: Potency index, ratio of anti-platelet activity for aspirin to test compound in rat platelet rich plasma. Format: functional.
Turning to `COc1cc(-c2cc(=O)c3c(O)cc(O)cc3o2)ccc1O` [CHRYSOERIOL], the Ratio was found to be 2.

Test system in the next assay: not listed separately
Description: Anti-platelet activity in rat platelet rich plasma assessed as inhibition of ADP and calcium-induced platelet aggregation at 1650 uM incubated at 37 degC for 10 mins and measured 30 mins after ADP and calcium addition. Format: functional.
Regarding `CC(=O)Oc1ccccc1C(=O)O` [ASPIRIN], the inhibition at 1650 µM came out at 41.5%.
